Where a name gives a salt, the structure may show the parent alone.
Columns and labels:
[1] = target: T1, α-1B adrenoceptor (rat spleen) (Rattus norvegicus, UniProt P15823); assay: Functional antagonism: phenylephrine (PE)-induced contraction of rat spleen; assay type: cell-based; conditions: for Kb: read-out: pA2 Rat Spleen [α-1B] (converted); for more potent effect on spleen smooth muscle: PE-induced contraction, pA2 models compared
T1 construct: PE-induced contraction of rat spleen; from tissue; host or cells: rat spleen
T1 sequence (P15823 1-515): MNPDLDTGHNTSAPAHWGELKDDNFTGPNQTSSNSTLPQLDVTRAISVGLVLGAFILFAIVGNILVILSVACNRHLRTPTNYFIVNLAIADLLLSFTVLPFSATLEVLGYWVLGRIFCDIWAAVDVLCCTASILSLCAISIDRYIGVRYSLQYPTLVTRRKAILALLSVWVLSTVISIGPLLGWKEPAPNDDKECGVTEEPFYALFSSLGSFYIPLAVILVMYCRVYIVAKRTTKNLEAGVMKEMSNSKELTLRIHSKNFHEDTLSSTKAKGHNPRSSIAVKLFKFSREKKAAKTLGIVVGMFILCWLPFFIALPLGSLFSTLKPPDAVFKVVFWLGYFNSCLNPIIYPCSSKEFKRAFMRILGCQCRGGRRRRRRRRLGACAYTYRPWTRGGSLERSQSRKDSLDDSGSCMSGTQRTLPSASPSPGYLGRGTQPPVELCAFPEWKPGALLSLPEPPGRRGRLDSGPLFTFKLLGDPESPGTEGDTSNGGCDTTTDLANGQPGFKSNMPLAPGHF
From the text: (§1) Functional assays indicative of pharmacologically defined α-1 adrenoceptors were used to further characterize compounds. Inhibition of phenylephrine (PE)-induced contraction of canine prostate smooth muscle can be correlated with α-1A adrenoceptor activation. […] For each of these models, agonist dose response curves were repeated against increasing concentrations of test agent to derive a Schild plot [log ([…]) against log (molarity of test agent)] to determine the pA2.

[2] = target: T2, α-1A adrenoceptor (rat vas deferens) (Rattus norvegicus, UniProt P43140); assay: Functional antagonism: phenylephrine (PE)-induced contraction of rat vas deferens; assay type: cell-based; conditions: vs phenylephrine, Schild plot; for Kb: read-out: pA2 Rat Vas Deferens [α-1A] (converted)
T2 construct: PE-induced contraction of rat vas deferens; from tissue; host or cells: rat vas deferens
T2 sequence (P43140 1-466): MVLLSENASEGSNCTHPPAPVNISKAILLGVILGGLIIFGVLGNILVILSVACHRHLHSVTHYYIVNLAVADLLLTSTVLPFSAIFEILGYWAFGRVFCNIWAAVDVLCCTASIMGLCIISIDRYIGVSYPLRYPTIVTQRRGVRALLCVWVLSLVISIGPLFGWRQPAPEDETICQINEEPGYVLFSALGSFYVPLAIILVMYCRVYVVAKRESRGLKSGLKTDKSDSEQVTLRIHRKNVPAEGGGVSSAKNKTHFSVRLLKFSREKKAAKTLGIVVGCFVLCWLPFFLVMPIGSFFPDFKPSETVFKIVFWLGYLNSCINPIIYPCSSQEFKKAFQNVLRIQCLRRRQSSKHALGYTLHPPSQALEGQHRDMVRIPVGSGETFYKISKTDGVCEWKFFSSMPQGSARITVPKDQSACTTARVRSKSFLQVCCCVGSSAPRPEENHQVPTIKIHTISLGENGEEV
From the text: as §1

[3] = target: T3, α-1A adrenoceptor (dog prostate) (Canis lupus, UniProt A0A8I3NK63); assay: Functional antagonism: phenylephrine (PE)-induced contraction of canine prostate strips; assay type: cell-based; conditions: Table 2a; vs phenylephrine; Schild plot
T3 sequence (A0A8I3NK63 1-466): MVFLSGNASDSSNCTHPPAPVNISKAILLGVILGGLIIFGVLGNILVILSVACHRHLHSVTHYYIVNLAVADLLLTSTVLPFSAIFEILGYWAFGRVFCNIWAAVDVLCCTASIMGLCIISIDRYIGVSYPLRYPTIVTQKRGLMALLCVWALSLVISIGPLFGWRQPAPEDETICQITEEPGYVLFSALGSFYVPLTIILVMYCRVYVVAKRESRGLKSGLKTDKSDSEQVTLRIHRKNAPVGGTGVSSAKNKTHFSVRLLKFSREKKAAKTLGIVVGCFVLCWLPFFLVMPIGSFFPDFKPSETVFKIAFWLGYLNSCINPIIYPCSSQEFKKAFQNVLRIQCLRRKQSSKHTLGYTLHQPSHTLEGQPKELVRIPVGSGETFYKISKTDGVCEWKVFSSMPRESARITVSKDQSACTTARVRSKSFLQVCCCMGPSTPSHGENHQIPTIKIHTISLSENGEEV
In short: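 Canine prostate smooth-muscle strips in vitro, contracted by phenylephrine. Agonist dose–response curves repeated at rising test-agent concentrations; pA2 derived by Schild plot […].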

[4] = cited from earlier work; for urinary flow rates and subjective symptom scores: longer term studies
[5] = women during antihypertensive treatment; cited from earlier work

| Kb ([1]; vs phenylephrine, Schild plot) [nM] | Kb [2] [nM] | pA2 Dog Prostate [α-1A] [3] | Compound | other results |
| --- | --- | --- | --- | --- |
| 25.7 | 1.95 | 8.63 | COc1cccc2c1CC[C@H]1CN(CCn3c(=O)[nH]c4c(sc5ccccc54)c3=O)C[C@@H]21 [Example 9, hydrochloride] | – |
| 56.2 | 10.5 | 8.54 | COc1cccc2c1[C@@H]1CN(CCn3c(=O)[nH]c4c(sc5ccccc54)c3=O)C[C@@H]1CC2 [Example 16, hydrochloride] | – |
| 7.41 | 2.75 | 8.63 | COc1cccc2c1CC[C@H]1CN(CCn3c(=O)[nH]c4c([nH]c5ccccc54)c3=O)C[C@@H]21 [Example 26, 3-[2-((3aR,9bR)-cis-6-Methoxy-2,3,3a,4,5,9b-hexahydro-[1 H]-benz[e]isoindol-1-yl)ethyl]-1H-pyrimido[5.4-b]indole-2,4(1H,3H)-dione hydrochloride] | – |
| 17.4 | 2.24 | 8.78 | COc1cccc2c1CC[C@H]1CN(CCn3c(=O)[nH]c4c(sc5ncccc54)c3=O)C[C@@H]21 [Example 31, 3,2-((3aR,9bR)-cis-6-Methoxy-2,3,3a,4,5,9b-hexahydro-[1H]-benz[e]isoindol-1-yl))ethyl]-pyrido[3',2':4,5]thieno[3,2-d]pyrimidine-2,4(1H,3H)-dione hydrochloride] | – |
| 7.94 | 2.51 | 9.71 | COc1cccc2c1CC[C@H]1CN(CCn3c(=O)[nH]c4c(sc5cnccc54)c3=O)C[C@@H]21 [Example 36, dihydrochloride] | – |
| – | – | 9.16 | COc1cccc2c1CC[C@H]1CN(CCn3c(=O)[nH]c4c(sc5nccnc54)c3=O)C[C@@H]21 [Example 39] | pA2 Rat Spleen [α-1B] ([1]; vs phenylephrine, Schild plot): 7.76; pA2 Rat Vas Deferens [α-1A] [2]: 8.33 |
| 36.3 | 4.37 | 9.09 | COc1cccc2c1CC[C@H]1CN(CCn3c(=O)[nH]c4c(sc5ccc(C(=O)N6CCOCC6)cc54)c3=O)C[C@@H]21 [Example 58, hydrochloride] | – |
| 21.9 | 0.724 | 9.24 | COc1cccc2c1CC[C@H]1CN(CCn3c(=O)[nH]c4c(sc5ccc(Cl)nc54)c3=O)C[C@@H]21 [Example 62, dihydrochloride] | – |
| 25.1 | 0.794 | 9.63 | COc1ccc2sc3c(=O)n(CCN4C[C@@H]5CCc6c(OC)cccc6[C@@H]5C4)c(=O)[nH]c3c2n1 [Example 64, dihydrochloride] | – |
| 69.2 | 2.51 | 8.25 | COc1cccc2c1CC[C@H]1CN(CCn3c(=O)[nH]c4c(sc5cccc(C)c54)c3=O)C[C@@H]21 [Example 69, 3-[2-((3aR,9bR)-cis-6-Methoxy-2,3,3a,4,5,9b-hexahydro-[1H]-benz[e]isoindol-1-yl)ethyl]-[1]-9-methyl-benzothieno[3,2-d]pyrimidine-2,4(1H,3H)-dione hydrochloride] | – |
| 79.4 | 5.89 | 8.04 | COc1cccc2c1CC[C@@H]1CN(CCn3c(=O)[nH]c4c(sc5ncccc54)c3=O)C[C@H]21 [Example 75, hydrochloride] | – |
| 23.4 | 25.1 | 8.74 | COc1cccc2c1CC[C@H]1CN(CCn3c(=O)[nH]c4c(oc5ncccc54)c3=O)C[C@@H]21 [Example 76, hydrochloride] | – |
| 87.1 | 18.2 | 8.67 | COc1cccc2c1CC[C@H]1CN(CCn3c(=O)[nH]c4c(oc5nccnc54)c3=O)C[C@@H]21 [Example 87, hydrochloride] | – |
| 44.7 | 1.1 | 9.35 | COc1cccc2c1CC[C@H]1CN(CCn3c(=O)[nH]c4c(sc5nc(Cl)cnc54)c3=O)C[C@@H]21 [Example 88, 3-[2-(cis-(3aR,9bR)-6-Methoxy-2,3,3a,4,5,9b-hexahydro-[1H]-benz[e]isoindol-1-yl)ethyl]-7-chloro-pyrazino[2',3':4,5]thieno[3,2-d]pyrimidine-2,4(1H,3H)-dione hydrochloride] | – |
| 7.76 | 1.17 | 9.03 | COc1cnc2c(n1)sc1c(=O)n(CCN3C[C@@H]4CCc5c(OC)cccc5[C@@H]4C3)c(=O)[nH]c12 [Example 89, hydrochloride] | – |
| 26.9 | 1.45 | 9.05 | COc1cccc2c1CC[C@H]1CN(CCn3c(=O)c4sc5nccnc5c4n(C(C)C)c3=O)C[C@@H]21 [Example 90, hydrochloride] | – |
| 17.4 | 3.63 | 8.96 | COCCOCCn1c(=O)n(CCN2C[C@@H]3CCc4c(OC)cccc4[C@@H]3C2)c(=O)c2sc3nccnc3c21 [Example 102, hydrochloride] | – |
| 37.2 | 20 | 9.22 | COc1cccc2c1CC[C@H]1CN(CCn3c(=O)[nH]c4c(sc5ccc(O)nc54)c3=O)C[C@@H]21 [Example 107, dihydrochloride] | – |
| 11.2 | 3.39 | 9.03 | COc1cccc2c1CC[C@H]1CN(CCn3c(=O)[nH]c4c(sc5ccc(C#N)nc54)c3=O)C[C@@H]21 [Example 108, dihydrochloride] | – |
| – | – | – | O=C(NC1CCN(CCc2c[nH]c3ccccc23)CC1)c1ccccc1 [indoramin] | urinary flow rates and subjective symptom scores [4]: significant improvements in urinary flow rates and subjective symptom scores |
| – | – | – | COc1cc2nc(N3CCN(C(=O)c4ccco4)CC3)nc(N)c2cc1OC [prazosin] | urinary incontinence [5]: urinary incontinence developed in women; more potent effect on spleen smooth muscle [1]: more potent effect on spleen smooth muscle by approximately an order of magnitude; urinary flow rates and subjective symptom scores [4]: significant improvements in urinary flow rates and subjective symptom scores |
| – | – | – | COc1cc2nc(N3CCN(C(=O)C4CCCO4)CC3)nc(N)c2cc1OC (stereo not shown) [terazosin] | more potent effect on spleen smooth muscle [1]: more potent effect on spleen smooth muscle by approximately an order of magnitude; clinical efficacy in BPH ([4]; human, in vivo): Clinical efficacy of α-1 antagonists in BPH has been demonstrated; urinary flow rates and subjective symptom scores [4]: significant improvements in urinary flow rates and subjective symptom scores |
